From patent US20040058425A1, “Crystal structure” (priority 2001, published 2004)

Key:
PDHK [1] = experiment: Kinase activity of PDHK using a PDHK specific substrate peptide; type: biochemical; conditions: data not shown
PDHK [2] = experiment: Assay to measure whether compounds inhibit PDHK activity (kinase reaction with porcine PDH and MgATP, then residual PDH activity by NAD reduction at 340 nm); type: biochemical; conditions: result in words
Method: Compounds were assessed for inhibition of PDHK in an assay adapted from Espinal, J. et al (1995) Drug Development Res. 35, 130-136. In the first part of the assay, compounds were incubated with porcine PDH (Sigma P-7032) and MgATP, and the reaction was stopped after defined intervals. In the second part of the assay, the residual PDH activity was measured by monitoring the rate of reduction of NAD at 340 nm.
The assay was performed in flat-bottom 96-well microtitre plates, using a final volume of 50 μl for the first part of the assay (kinase reaction), and 250 μl for the PDH reaction. At first, 10 μl test compound in a suitable diluent, 20 μl kinase buffer (20 mM potassium phosphate, pH7.0, 4 mM MgCl2, 4 mM dithiothreitol) and 10 μl PDH (Sigma, P-7032, diluted with water to a final concentration of 1.83 mg/ml) were mixed and incubated for 10 min; then 10 μl ATP solution (125 μM in kinase buffer) was added to start the reaction.
The incubations were done at 30° C. The kinase reaction was terminated after defined intervals (usually 0, 10, 20, 30, 60, and 90 min) by initiating the PDH reaction. […] Kinetic readings were then taken at 340 nm conducted at 12 sec intervals for 20 min with shaking for 1 sec before each reading was taken, in a SpectraMax plate reader. […]

Compound | inhibition of the kinase activity of PDHK (PDHK [1]) | ATP dependent inhibition of the PDH complex (PDHK [2])
CC1CN(C(=O)C(C)(O)C(F)(F)F)C(C)CN1C(=O)c1ccc(C#N)cc1 (stereo not shown) [Compound 1] | do not inhibit the kinase activity of PDHK | prevent ATP dependent inhibition of the PDH complex
N-{4-[(ethylanilino)sulfonyl]-2-methylphenyl}-3,3,3-trifluoro-2-hydroxy-2-methylpropanamide [Compound 2] | do not inhibit the kinase activity of PDHK | prevent ATP dependent inhibition of the PDH complex
